ChEMBL document CHEMBL4507303, “Data for DCP probe TP-004” (2021)

Legend:
[1] = target: Atypical kinase COQ8A, mitochondrial (Homo sapiens) (UniProt Q8NI60); details: Compound concentration 1000.0 nM
[2] = target: Cyclin-dependent kinase 7 (Homo sapiens) (UniProt P50613); details: Compound concentration 1000.0 nM
[3] = target: Serine/threonine-protein kinase mTOR (Homo sapiens) (UniProt P42345); details: Compound concentration 1000.0 nM
[4] = target: Serine/threonine-protein kinase 10 (Homo sapiens) (UniProt O94804); details: Compound concentration 1000.0 nM
[5] = target: Ephrin type-A receptor 3 (Homo sapiens) (UniProt P29320); details: Compound concentration 1000.0 nM
[6] = target: Mitogen-activated protein kinase 6 (Homo sapiens) (UniProt Q16659); details: Compound concentration 1000.0 nM
[7] = tested on: Tyrosine-protein kinase ABL1 (Homo sapiens), P00519 [Q252H]; details: Compound concentration 1000.0 nM
[8] = target: Phosphatidylinositol 4-phosphate 3-kinase C2 domain-containing subunit beta (Homo sapiens) (UniProt O00750); details: Compound concentration 1000.0 nM
[9] = tested on: Mast/stem cell growth factor receptor Kit (Homo sapiens), P10721 [D816V]; details: Compound concentration 1000.0 nM
[10] = target: 5-hydroxytryptamine receptor 2A (Homo sapiens) (UniProt P28223); details: Compound concentration 10.0 uM
[11] = target: Dual specificity mitogen-activated protein kinase kinase 3 (Homo sapiens) (UniProt P46734); details: Compound concentration 1000.0 nM
[12] = target: Homeodomain-interacting protein kinase 1 (Homo sapiens) (UniProt Q86Z02); details: Compound concentration 1000.0 nM
[13] = target: Tyrosine-protein kinase BTK (Homo sapiens) (UniProt Q06187); details: Compound concentration 1000.0 nM
[14] = target: STE20-like serine/threonine-protein kinase (Homo sapiens) (UniProt Q9H2G2); details: Compound concentration 1000.0 nM
[15] = tested on: Tyrosine-protein kinase ABL1 (Homo sapiens), P00519 [H396P]; details: Compound concentration 1000.0 nM
[16] = target: Mitogen-activated protein kinase 7 (Homo sapiens) (UniProt Q13164); details: Compound concentration 1000.0 nM
[17] = target: Serine/threonine-protein kinase ULK3 (Homo sapiens) (UniProt Q6PHR2); details: Compound concentration 1000.0 nM
[18] = target: Myosin light chain kinase (Homo sapiens) (UniProt Q32MK0); details: Compound concentration 1000.0 nM
[19] = target: Tyrosine-protein kinase ABL1 (Homo sapiens) (UniProt P00519); details: Compound concentration 1000.0 nM
[20] = target: Cyclin-dependent kinase 17 (Homo sapiens) (UniProt Q00537); details: Compound concentration 1000.0 nM
[21] = target: Serine/threonine-protein kinase Nek11 (Homo sapiens) (UniProt Q8NG66); details: Compound concentration 1000.0 nM
[22] = target: Dual specificity tyrosine-phosphorylation-regulated kinase 2 (Homo sapiens) (UniProt Q92630); details: Compound concentration 1000.0 nM
[23] = target: Serine/threonine-protein kinase N1 (Homo sapiens) (UniProt Q16512); details: Compound concentration 1000.0 nM
[24] = target: LIM domain kinase 2 (Homo sapiens) (UniProt P53671); details: Compound concentration 1000.0 nM
[25] = tested on: Epidermal growth factor receptor (Homo sapiens), P00533 [UNDEFINED MUTATION]; details: Compound concentration 1000.0 nM
[26] = target: Vascular endothelial growth factor receptor 1 (Homo sapiens) (UniProt P17948); details: Compound concentration 1000.0 nM
[27] = tested on: Mast/stem cell growth factor receptor Kit (Homo sapiens), P10721 [V559D,T670I]; details: Compound concentration 1000.0 nM
[28] = target: TGF-beta receptor type-1 (Homo sapiens) (UniProt P36897); details: Compound concentration 1000.0 nM
[29] = target: Casein kinase I isoform gamma-3 (Homo sapiens) (UniProt Q9Y6M4); details: Compound concentration 1000.0 nM
[30] = tested on: Epidermal growth factor receptor (Homo sapiens), P00533 [UNDEFINED MUTATION]; details: Compound concentration 1000.0 nM; remark: listed apart in the source
[31] = target: Serine/threonine-protein kinase 36 (Homo sapiens) (UniProt Q9NRP7); details: Compound concentration 1000.0 nM
[32] = tested on: Tyrosine-protein kinase ABL1 (Homo sapiens), P00519 [T315I]; details: Compound concentration 1000.0 nM
[33] = target: Phosphatidylinositol 4-phosphate 5-kinase type-1 alpha (Homo sapiens) (UniProt Q99755); details: Compound concentration 1000.0 nM
[34] = target: SRSF protein kinase 3 (Homo sapiens) (UniProt Q9UPE1); details: Compound concentration 1000.0 nM
[35] = target: Aurora kinase A (Homo sapiens) (UniProt O14965); details: Compound concentration 1000.0 nM
[36] = target: Cyclin-dependent kinase 4 (Homo sapiens) (UniProt P11802); details: Compound concentration 1000.0 nM
[37] = target: Tyrosine-protein kinase CSK (Homo sapiens) (UniProt P41240); details: Compound concentration 1000.0 nM
[38] = target: Hormonally up-regulated neu tumor-associated kinase (Homo sapiens) (UniProt P57058); details: Compound concentration 1000.0 nM
[39] = target: Serine/threonine-protein kinase 17A (Homo sapiens) (UniProt Q9UEE5); details: Compound concentration 1000.0 nM
[40] = target: Serine/threonine-protein kinase Nek3 (Homo sapiens) (UniProt P51956); details: Compound concentration 1000.0 nM
[41] = tested on: Epidermal growth factor receptor (Homo sapiens), P00533 [UNDEFINED MUTATION]; details: Compound concentration 1000.0 nM; remark: listed apart in the source
[42] = target: RAC-gamma serine/threonine-protein kinase (Homo sapiens) (UniProt Q9Y243); details: Compound concentration 1000.0 nM
[43] = target: Serine/threonine-protein kinase 3 (Homo sapiens) (UniProt Q13188); details: Compound concentration 1000.0 nM
[44] = target: Rho-associated protein kinase 2 (Homo sapiens) (UniProt O75116); details: Compound concentration 1000.0 nM
[45] = target: Ribosomal protein S6 kinase alpha-5 (Homo sapiens) (UniProt O75582); details: Compound concentration 1000.0 nM

Chain of Epidermal growth factor receptor (Homo sapiens), P00533 [UNDEFINED MUTATION] (P00533 whole entry, looked up, change not shown): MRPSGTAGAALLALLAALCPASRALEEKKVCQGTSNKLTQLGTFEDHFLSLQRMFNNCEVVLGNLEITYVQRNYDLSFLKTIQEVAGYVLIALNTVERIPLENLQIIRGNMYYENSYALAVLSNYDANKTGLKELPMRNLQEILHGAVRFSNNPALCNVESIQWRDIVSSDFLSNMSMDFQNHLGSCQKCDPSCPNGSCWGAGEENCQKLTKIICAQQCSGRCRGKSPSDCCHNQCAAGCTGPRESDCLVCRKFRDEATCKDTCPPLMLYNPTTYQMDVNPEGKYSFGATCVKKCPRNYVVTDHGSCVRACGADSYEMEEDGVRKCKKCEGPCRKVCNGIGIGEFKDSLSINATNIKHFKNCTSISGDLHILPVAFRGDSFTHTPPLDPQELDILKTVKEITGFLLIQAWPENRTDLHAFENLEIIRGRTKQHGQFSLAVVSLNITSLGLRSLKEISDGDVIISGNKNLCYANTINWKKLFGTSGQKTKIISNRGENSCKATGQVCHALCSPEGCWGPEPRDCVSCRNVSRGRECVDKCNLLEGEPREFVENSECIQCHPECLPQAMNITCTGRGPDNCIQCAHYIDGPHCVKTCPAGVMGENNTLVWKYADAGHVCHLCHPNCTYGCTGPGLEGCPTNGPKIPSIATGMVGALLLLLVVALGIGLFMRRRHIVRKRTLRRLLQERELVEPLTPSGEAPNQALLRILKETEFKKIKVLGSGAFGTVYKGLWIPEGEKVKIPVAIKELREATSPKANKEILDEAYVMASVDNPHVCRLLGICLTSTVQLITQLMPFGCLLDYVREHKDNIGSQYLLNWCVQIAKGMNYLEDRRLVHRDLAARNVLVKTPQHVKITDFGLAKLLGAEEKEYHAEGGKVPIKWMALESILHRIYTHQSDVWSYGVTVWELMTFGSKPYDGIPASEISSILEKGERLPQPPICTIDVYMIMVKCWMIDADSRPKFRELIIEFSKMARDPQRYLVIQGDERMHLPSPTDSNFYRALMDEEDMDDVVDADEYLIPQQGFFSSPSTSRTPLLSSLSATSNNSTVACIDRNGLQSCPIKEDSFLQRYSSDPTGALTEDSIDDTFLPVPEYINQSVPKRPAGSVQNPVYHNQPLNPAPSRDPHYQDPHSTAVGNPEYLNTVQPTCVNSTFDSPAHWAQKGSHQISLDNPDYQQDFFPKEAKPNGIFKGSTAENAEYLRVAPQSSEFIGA
Chain of Phosphatidylinositol 4-phosphate 3-kinase C2 domain-containing subunit beta (Homo sapiens) (O00750 whole entry, the tested form may be a part): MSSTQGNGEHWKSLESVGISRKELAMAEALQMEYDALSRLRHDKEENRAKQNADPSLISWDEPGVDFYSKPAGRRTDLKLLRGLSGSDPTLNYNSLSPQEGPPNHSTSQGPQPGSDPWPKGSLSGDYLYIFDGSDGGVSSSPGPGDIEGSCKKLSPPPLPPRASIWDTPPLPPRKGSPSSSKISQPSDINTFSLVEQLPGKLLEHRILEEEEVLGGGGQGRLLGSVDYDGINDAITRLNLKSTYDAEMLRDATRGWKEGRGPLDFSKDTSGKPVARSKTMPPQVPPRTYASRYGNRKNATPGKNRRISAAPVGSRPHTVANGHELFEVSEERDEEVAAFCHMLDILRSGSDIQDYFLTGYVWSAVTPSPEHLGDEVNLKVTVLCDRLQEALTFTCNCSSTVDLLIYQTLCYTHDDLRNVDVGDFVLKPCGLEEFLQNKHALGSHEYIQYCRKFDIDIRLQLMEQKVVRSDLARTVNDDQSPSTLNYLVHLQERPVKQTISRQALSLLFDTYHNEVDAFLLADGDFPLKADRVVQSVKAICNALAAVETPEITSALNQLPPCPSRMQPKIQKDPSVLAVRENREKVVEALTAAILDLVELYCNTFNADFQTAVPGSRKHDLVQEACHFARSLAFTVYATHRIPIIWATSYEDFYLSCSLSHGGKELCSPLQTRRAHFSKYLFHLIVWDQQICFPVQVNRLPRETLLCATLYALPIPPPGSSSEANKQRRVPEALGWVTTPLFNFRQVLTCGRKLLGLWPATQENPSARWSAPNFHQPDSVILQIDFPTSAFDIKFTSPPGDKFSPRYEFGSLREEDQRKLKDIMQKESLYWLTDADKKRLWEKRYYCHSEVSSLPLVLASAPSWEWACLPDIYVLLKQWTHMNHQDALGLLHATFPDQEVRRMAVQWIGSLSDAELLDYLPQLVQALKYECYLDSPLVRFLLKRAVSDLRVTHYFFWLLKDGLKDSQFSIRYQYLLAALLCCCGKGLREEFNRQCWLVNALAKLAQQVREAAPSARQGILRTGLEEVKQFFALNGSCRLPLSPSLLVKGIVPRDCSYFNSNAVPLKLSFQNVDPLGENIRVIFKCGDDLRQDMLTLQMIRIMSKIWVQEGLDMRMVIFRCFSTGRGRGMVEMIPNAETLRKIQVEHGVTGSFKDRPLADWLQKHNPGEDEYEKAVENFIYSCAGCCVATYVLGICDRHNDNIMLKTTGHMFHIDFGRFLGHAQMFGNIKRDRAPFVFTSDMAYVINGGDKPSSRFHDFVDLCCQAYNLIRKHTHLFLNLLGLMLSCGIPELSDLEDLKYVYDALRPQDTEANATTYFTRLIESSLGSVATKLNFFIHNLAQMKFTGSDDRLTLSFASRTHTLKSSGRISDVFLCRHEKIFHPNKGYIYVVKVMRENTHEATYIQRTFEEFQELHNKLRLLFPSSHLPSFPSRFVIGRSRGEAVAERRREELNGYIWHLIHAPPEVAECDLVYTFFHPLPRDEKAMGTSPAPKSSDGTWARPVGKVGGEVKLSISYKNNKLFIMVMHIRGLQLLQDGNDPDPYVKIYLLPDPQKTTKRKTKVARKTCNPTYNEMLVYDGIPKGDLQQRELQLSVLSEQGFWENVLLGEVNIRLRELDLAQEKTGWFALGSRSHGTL
Chain of Aurora kinase A (Homo sapiens) (O14965 whole entry): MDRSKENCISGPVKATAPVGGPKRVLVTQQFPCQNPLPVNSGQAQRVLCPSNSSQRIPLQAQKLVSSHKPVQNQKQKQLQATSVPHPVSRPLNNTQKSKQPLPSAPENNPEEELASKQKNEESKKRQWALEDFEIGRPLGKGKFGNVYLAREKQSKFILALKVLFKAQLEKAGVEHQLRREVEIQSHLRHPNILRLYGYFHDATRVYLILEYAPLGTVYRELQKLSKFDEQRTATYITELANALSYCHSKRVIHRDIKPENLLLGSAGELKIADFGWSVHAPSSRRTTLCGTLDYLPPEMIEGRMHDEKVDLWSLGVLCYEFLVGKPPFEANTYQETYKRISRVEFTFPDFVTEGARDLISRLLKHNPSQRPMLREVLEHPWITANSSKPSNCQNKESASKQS
Chain of Serine/threonine-protein kinase N1 (Homo sapiens) (Q16512 2-942 limits assumed): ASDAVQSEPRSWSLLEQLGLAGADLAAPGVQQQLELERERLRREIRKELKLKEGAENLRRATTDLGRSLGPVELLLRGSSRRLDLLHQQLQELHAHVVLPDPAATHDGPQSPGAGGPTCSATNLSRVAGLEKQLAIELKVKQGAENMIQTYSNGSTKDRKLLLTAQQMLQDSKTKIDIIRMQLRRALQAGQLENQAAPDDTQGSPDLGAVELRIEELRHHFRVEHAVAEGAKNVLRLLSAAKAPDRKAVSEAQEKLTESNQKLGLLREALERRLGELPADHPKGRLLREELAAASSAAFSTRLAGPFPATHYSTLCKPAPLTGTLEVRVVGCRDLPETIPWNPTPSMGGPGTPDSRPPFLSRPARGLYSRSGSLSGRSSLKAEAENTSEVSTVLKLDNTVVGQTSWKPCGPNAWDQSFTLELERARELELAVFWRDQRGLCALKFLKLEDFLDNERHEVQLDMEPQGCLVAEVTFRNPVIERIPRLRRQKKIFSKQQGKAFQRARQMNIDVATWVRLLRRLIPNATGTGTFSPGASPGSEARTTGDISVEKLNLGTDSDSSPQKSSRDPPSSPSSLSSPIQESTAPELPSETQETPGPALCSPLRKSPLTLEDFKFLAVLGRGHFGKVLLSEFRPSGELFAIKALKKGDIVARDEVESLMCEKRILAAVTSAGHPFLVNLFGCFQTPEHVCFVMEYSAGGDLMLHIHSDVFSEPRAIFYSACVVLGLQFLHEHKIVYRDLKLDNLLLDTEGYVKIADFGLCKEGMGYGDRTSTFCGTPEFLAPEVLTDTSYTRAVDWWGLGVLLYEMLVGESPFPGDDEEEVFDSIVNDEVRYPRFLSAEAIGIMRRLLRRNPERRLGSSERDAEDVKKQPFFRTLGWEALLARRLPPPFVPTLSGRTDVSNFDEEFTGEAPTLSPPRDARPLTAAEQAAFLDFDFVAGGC
Chain of Cyclin-dependent kinase 17 (Homo sapiens) (Q00537 whole entry, looked up): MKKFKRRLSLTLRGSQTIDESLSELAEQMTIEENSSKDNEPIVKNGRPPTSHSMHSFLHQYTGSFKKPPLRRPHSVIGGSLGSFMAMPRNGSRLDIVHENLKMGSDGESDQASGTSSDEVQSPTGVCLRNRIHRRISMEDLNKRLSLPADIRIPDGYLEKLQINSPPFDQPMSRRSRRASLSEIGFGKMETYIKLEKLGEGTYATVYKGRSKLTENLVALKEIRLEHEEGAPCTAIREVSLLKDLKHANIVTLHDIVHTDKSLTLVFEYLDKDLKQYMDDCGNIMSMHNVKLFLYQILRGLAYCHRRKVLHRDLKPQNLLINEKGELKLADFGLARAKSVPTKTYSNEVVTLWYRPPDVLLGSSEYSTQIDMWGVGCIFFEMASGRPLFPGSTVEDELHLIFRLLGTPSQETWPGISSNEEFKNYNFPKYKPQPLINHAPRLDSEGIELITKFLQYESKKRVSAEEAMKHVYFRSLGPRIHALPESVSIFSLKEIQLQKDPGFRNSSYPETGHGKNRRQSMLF
Chain of Cyclin-dependent kinase 7 (Homo sapiens) (P50613 whole entry): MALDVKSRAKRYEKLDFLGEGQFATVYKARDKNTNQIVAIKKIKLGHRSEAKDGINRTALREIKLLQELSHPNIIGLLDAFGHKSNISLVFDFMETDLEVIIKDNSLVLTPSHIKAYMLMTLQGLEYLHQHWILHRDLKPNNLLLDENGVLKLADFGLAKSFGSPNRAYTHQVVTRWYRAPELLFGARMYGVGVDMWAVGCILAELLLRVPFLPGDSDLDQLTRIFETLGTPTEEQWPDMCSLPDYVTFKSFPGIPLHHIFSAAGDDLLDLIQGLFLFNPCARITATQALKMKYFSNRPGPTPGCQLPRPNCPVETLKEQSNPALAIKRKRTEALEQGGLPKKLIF

Cc1nc(N2CC[C@@H](O)C2)ncc1-c1cc(C(F)(F)F)cc2[nH]ncc12 [TP-004]
inactive: residual activity [1] 100% | residual activity [2] 68% | residual activity [3] 100% | residual activity [4] 100% | residual activity [5] 94% | residual activity [6] 83% | residual activity [7] 79% | residual activity [8] 100% | residual activity [9] 100% | inhibition [10] -5.62% | residual activity [11] 90% | residual activity [12] 74% | residual activity [13] 63% | residual activity [14] 98% | residual activity [15] 61% | residual activity [16] 83% | residual activity [17] 78% | residual activity [18] 98% | residual activity [19] 83% | residual activity [20] 91% | residual activity [21] 87% | residual activity [22] 79% | residual activity [23] 100% | residual activity [24] 100% | residual activity [25] 100% | residual activity [26] 100% | residual activity [27] 68% | residual activity [28] 100% | residual activity [29] 74% | residual activity [30] 90% | residual activity [31] 100% | residual activity [32] 69% | residual activity [33] 86% | residual activity [34] 84% | residual activity [35] 87% | residual activity [36] 71% | residual activity [37] 100% | residual activity [38] 100% | residual activity [39] 100% | residual activity [40] 60% | residual activity [41] 99% | residual activity [42] 77% | residual activity [43] 80% | residual activity [44] 77% | residual activity [45] 81%
